From US20150133426A1, “SUBSTITUTED PYRROLOPYRIMIDINES” (BAYER PHARMA AKTIENGESELLSCHAFT, priority 2012, published 2015)

Target: T1, human full-length MKNK1 (Homo sapiens, UniProt Q9BUB5, T385D)
T1 construct: purchased Carna Biosciences 02-145; host or cells: insect cells, baculovirus expression system
Assay: MKNK1 kinase high ATP assay (TR-FRET)
Format: biochemical
Conditions: high ATP (2 mM), 15 min preincubation with enzyme, GST-MKNK1 (T344D)
Description: MKNK1-inhibitory activity at high ATP of compounds of the present invention after their preincubation with MKNK1 was quantified employing the TR-FRET-based MKNK1 high ATP assay as described in the following paragraphs.
A recombinant fusion protein of Glutathione-S-Transferase (GST, N-terminally) and human full-length MKNK1 (amino acids 1-424 and T344D of accession number BAA 19885.1), expressed in insect cells using baculovirus expression system and purified via glutathione sepharose affinity chromatography, was purchased from Carna Biosciences (product no 02-145) and used as enzyme. As substrate for the kinase reaction the biotinylated peptide biotin-Ahx-IKKRKLTRRKSLKG (C-terminus in amide form) was used, which can be purchased e.g. from the company Biosyntan (Berlin-Buch, Germany).
For the assay 50 nL of a 100fold concentrated solution of the test compound in DMSO was pipetted into a black low volume 384well microtiter plate (Greiner Bio-One, Frickenhausen, Germany), 2 μL of a solution of MKNK1 in aqueous assay buffer [50 mM HEPES pH 7.5, 5 mM MgCl2, 1.0 mM dithiothreitol, 0.005% (v/v) Nonidet-P40 (Sigma)] was added and the mixture was incubated for 15 min at 22° C. to allow pre-binding of the test compounds to the enzyme before the start of the kinase reaction. Then the kinase reaction was started by the addition of 3 μL of a solution of adenosine-tri-phosphate (ATP, 3.3 mM=>final conc. in the 5 μL assay volume is 2 mM) and substrate (0.1 μM=>final conc. in the 5 μL assay volume is 0.06 μM) in assay buffer and the resulting mixture was incubated for a reaction time of 30 min at 22° C. The concentration of MKNK1 was adjusted depending of the activity of the enzyme lot and was chosen appropriate to have the assay in the linear range, typical concentrations were in the range of 0.003 μg/mL. The reaction was stopped by the addition of 5 μL of a solution of TR-FRET detection reagents (5 nM streptavidine-XL665 [Cisbio Bioassays, Codolet, France] and 1 nM anti-ribosomal protein […] (pSer236)-antibody from Invitrogen [#44921G] and 1 nM LANCE EU-W1024 labeled ProteinG [Perkin-Elmer, product no. AD0071]) in an aqueous EDTA-solution (100 mM EDTA, 0.1% (w/v) bovine serum albumin in 50 mM HEPES pH 7.5).
The resulting mixture was incubated for 1 h at 22° C. to allow the formation of complex between the phosphorylated biotinylated peptide and the detection reagents. Subsequently the amount of phosphorylated substrate was evaluated by measurement of the resonance energy transfer from the Eu-chelate to the streptavidine-XL. Therefore, the fluorescence emissions at 620 nm and 665 nm after excitation at 350 nm were measured in a TR-FRET reader, e.g. a Rubystar (BMG Labtechnologies, Offenburg, Germany) or a Viewlux (Perkin-Elmer). The ratio of the emissions at 665 nm and at […] was taken as the measure for the amount of phosphorylated substrate. The data were normalised (enzyme reaction without inhibitor=0% inhibition, all other assay components but no enzyme=100% inhibition).

T1 sequence (Q9BUB5 1-424 isoform Q9BUB5-2 T344D): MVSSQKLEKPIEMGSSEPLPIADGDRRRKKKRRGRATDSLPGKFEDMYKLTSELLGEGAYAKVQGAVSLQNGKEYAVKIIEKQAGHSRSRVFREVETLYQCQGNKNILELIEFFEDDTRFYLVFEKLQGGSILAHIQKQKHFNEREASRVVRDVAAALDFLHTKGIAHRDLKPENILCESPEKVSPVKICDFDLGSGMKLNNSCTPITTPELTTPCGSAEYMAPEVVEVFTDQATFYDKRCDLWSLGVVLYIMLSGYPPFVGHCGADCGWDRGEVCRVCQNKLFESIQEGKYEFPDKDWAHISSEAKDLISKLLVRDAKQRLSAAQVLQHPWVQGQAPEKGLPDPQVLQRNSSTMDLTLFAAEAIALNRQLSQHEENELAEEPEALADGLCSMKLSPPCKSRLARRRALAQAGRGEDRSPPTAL

An IC50 of 773 nM was found for `COCC1(OC)CCc2[nH]c3ncnc(Nc4ccc(F)cc4OC(C)C)c3c2C1` (racemic) [Example 137] in this work.
An IC50 of 14 nM was found for `CS(=O)(=O)CCCNC(=O)C1CCc2[nH]c3ncnc(Nc4ccc5[nH]c(=O)sc5c4)c3c2C1` (racemic) [Example 29, (RS)—N-[3-(Methylsulfonyl)propyl]-4-[(2-oxo-2,3-dihydro-1,3-benzothiazol-6-yl)amino]-6,7,8,9-tetrahydro-5H-pyrimido[4,5-b]indole-6-carboxamide] in this work.
An IC50 of 6 nM was found for `COc1cc(Cl)c(Cl)cc1Nc1ncnc2[nH]c3c(c12)CC(C(=O)NCCCS(C)(=O)=O)CC3` (racemic) [Example 44, (RS)-4-[(4,5-Dichloro-2-methoxyphenyl)amino]-N-[3-(methylsulfonyl)propyl]-6,7,8,9-tetrahydro-5H-pyrimido[4,5-b]indole-6-carboxamide] in this work.
An IC50 of 1170 nM was found for `CS(=O)(=O)CCCNC(=O)C1CCc2[nH]c3ncnc(Nc4cccc5c4CCCC5)c3c2C1` (racemic) [Example 58, (RS)—N-[3-(Methylsulfonyl)propyl]-4-(5,6,7,8-tetrahydronaphthalen-1-ylamino)-6,7,8,9-tetrahydro-5H-pyrimido[4,5-b]indole-6-carboxamide] in this work.
An IC50 of no less than 20000 nM was found for `c1ccc(N2CCOCC2)c(Nc2ncnc3[nH]c4c(c23)CCCC4)c1` [Example 118] in this work.
An IC50 of 6090 nM was found for `CCOC(=O)C1CCc2[nH]c3ncnc(Nc4cc(F)ccc4OC)c3c2C1` (racemic) [Example 171, (RS)-Ethyl 4-[(5-fluoro-2-methoxyphenyl)amino]-6,7,8,9-tetrahydro-5H-pyrimido[4,5-b]indole-6-carboxylate] in this work.
An IC50 of 507 nM was found for `c1nc(Nc2ccc3[nH]ncc3c2)c2c3c([nH]c2n1)CCC3` [Example 69, N-(1H-Indazol-5-yl)-5,6,7,8-tetrahydrocyclopenta[4,5]pyrrolo[2,3-d]pyrimidin-4-amine] in this work.
An IC50 of 36 nM was found for `CS(=O)(=O)CCCNC(=O)C1CCc2[nH]c3ncnc(Nc4ccc(F)cc4OCCO)c3c2C1` (racemic) [Example 159, (RS)-4-{[4-Fluoro-2-(2-hydroxyethoxy)phenyl]amino}-N-[3-(methylsulfonyl)propyl]-6,7,8,9-tetrahydro-5H-pyrimido[4,5-b]indole-6-carboxamide] in this work.
An IC50 of 88 nM was found for `CCNC(=O)C1CCc2[nH]c3ncnc(Nc4ccccc4OC4CCCC4)c3c2C1` (racemic) [Example 190, (RS)-4-{[2-(Cyclopentyloxy)phenyl]amino}-N-ethyl-6,7,8,9-tetrahydro-5H-pyrimido[4,5-b]indole-6-carboxamide] in this work.
An IC50 of 86 nM was found for `CCOc1cc(Cl)ccc1Nc1ncnc2[nH]c3c(c12)CC(C(=O)NCCCS(C)(=O)=O)CC3` (racemic) [Example 165, (RS)-4-[(4-Chloro-2-ethoxyphenyl)amino]-N-[3-(methylsulfonyl)propyl]-6,7,8,9-tetrahydro-5H-pyrimido[4,5-b]indole-6-carboxamide] in this work.
An IC50 of 4 nM was found for `COc1cc2[nH]ncc2cc1Nc1ncnc2[nH]c3c(c12)CC(C(=O)N1CCN(C)CC1)CC3` (racemic) [Example 221, (RS)-{4-[(6-Methoxy-1H-indazol-5-yl)amino]-6,7,8,9-tetrahydro-5H-pyrimido[4,5-b]indol-6-yl}(4-methylpiperazin-1-yl)methanone] in this work.
An IC50 of 1740 nM was found for `CC(C)Oc1ccc(Cl)cc1Nc1ncnc2[nH]c3c(c12)CCCC3` [Example 124] in this work.
An IC50 of 9330 nM was found for `CNS(=O)(=O)c1ccc(Nc2ncnc3[nH]c4c(c23)CC(C(=O)NCCCS(C)(=O)=O)CC4)cc1` (racemic) [Example 41, (RS)-4-{[4-(Methylsulfamoyl)phenyl]amino}-N-[3-(methylsulfonyl)propyl]-6,7,8,9-tetrahydro-5H-pyrimido[4,5-b]indole-6-carboxamide] in this work.
An IC50 of 1160 nM was found for `CS(=O)(=O)CCCNC(=O)C1CCc2[nH]c3ncnc(Nc4ccc5c(c4)CS(=O)(=O)C5)c3c2C1` (racemic) [Example 40, (RS)-4-[(2,2-Dioxido-1,3-dihydro-2-benzothiophen-5-yl)amino]-N-[3-(methylsulfonyl)propyl]-6,7,8,9-tetrahydro-5H-pyrimido[4,5-b]indole-6-carboxamide] in this work.
An IC50 of 104 nM was found for `COc1ccc(Cl)cc1Nc1ncnc2[nH]c3c(c12)CCCC3` [Example 125] in this work.
An IC50 of 5 nM was found for `CC(C)Oc1cc2[nH]ncc2cc1Nc1ncnc2[nH]c3c(c12)CC(F)(F)CC3` [Example 232, 6,6-Difluoro-N-[6-(propan-2-yloxy)-1H-indazol-5-yl]-6,7,8,9-tetrahydro-5H-pyrimido[4,5-b]indol-4-amine] in this work.
An IC50 of 126 nM was found for `COc1ccc(F)cc1Nc1ncnc2[nH]c3c(c12)CCCC3` [Example 108] in this work.
An IC50 of 48 nM was found for `COCC1(OC)CCc2[nH]c3ncnc(Nc4cc5cn[nH]c5cc4OC)c3c2C1` (racemic) [Example 136] in this work.
An IC50 of 123 nM was found for `O=C(O)CNC(=O)C1CCc2[nH]c3ncnc(Nc4ccc(F)cc4OCCO)c3c2C1` (racemic) [Example 187, (RS)—N-[(4-{[4-Fluoro-2-(2-hydroxyethoxy)phenyl]amino}-6,7,8,9-tetrahydro-5H-pyrimido[4,5-b]indol-6-yl)carbonyl]glycine] in this work.
An IC50 of 58 nM was found for `O=c1[nH]c2ccc(Nc3ncnc4[nH]c5c(c34)CCCC5)cc2s1` [Example 117] in this work.
An IC50 of 24 nM was found for `COc1cc(Cl)c(Cl)cc1Nc1ncnc2[nH]c3c(c12)CC(C(=O)O)CC3` (racemic) [Example 18, (RS)-4-[(4,5-Dichloro-2-methoxyphenyl)amino]-6,7,8,9-tetrahydro-5H-pyrimido[4,5-b]indole-6-carboxylic acid] in this work.
An IC50 of 46 nM was found for `O=C(C1CCc2[nH]c3ncnc(Nc4ccc5[nH]ncc5c4)c3c2C1)N1CC(F)(F)C1` (racemic) [Example 17, (RS)-(3,3-Difluoroazetidin-1-yl)[4-(1H-indazol-5-ylamino)-6,7,8,9-tetrahydro-5H-pyrimido[4,5-b]indol-6-yl]methanone] in this work.
An IC50 of 19 nM was found for `O=C(NC1CC1)C1CCc2[nH]c3ncnc(Nc4ccc5[nH]ncc5c4)c3c2C1` (racemic) [Example 15, (RS)—N—Cyclopropyl-4-(1H-indazol-5-ylamino)-6,7,8,9-tetrahydro-5H-pyrimido[4,5-b]indole-6-carboxamide] in this work.
An IC50 of 1550 nM was found for `O=[N+]([O-])c1ccc2c(c1)CCN2c1ncnc2[nH]c3c(c12)CCCC3` [Example 123] in this work.
An IC50 of 1310 nM was found for `CS(=O)(=O)CCCNC(=O)C1CCc2[nH]c3ncnc(Nc4cccc(-n5cnnn5)c4)c3c2C1` (racemic) [Example 47, (RS)—N-[3-(Methylsulfonyl)propyl]-4-{[3-(1H-tetrazol-1-yl)phenyl]amino}-6,7,8,9-tetrahydro-5H-pyrimido[4,5-b]indole-6-carboxamide] in this work.
An IC50 of 1100 nM was found for `Nc1ccc2c(c1)N(c1ncnc3[nH]c4c(c13)CCCC4)CC2` [Example 111] in this work.
An IC50 of 258 nM was found for `CC(C)Oc1cc(F)ccc1Nc1ncnc2[nH]c3c(c12)CCCCC3` [Example 4, N-(4-Fluoro-2-isopropoxyphenyl)-5,6,7,8,9,10-hexahydrocyclohepta[4,5]pyrrolo[2,3-d]pyrimidin-4-amine] in this work.
An IC50 of 84 nM was found for `CNC(=O)C1CCc2[nH]c3ncnc(Nc4ccccc4OC4CCCC4)c3c2C1` (racemic) [Example 189, (RS)-4-{[2-(Cyclopentyloxy)phenyl]amino}-N-methyl-6,7,8,9-tetrahydro-5H-pyrimido[4,5-b]indole-6-carboxamide] in this work.
An IC50 of no less than 20000 nM was found for `COc1ccc(F)cc1Nc1ncnc2[nH]c3c(c12)CC(C(=O)Nc1ccccc1)CC3` (racemic) [Example 199, (RS)-4-[(5-Fluoro-2-methoxyphenyl)amino]-N-phenyl-6,7,8,9-tetrahydro-5H-pyrimido[4,5-b]indole-6-carboxamide] in this work.
An IC50 of 503 nM was found for `COCC1(OC)CCc2[nH]c3ncnc(Nc4cc(Cl)ccc4OC(C)C)c3c2C1` (racemic) [Example 132] in this work.
An IC50 of 19 nM was found for `COc1cc(Cl)c(Cl)cc1Nc1ncnc2[nH]c3c(c12)CC(C(=O)NC(C)C)CC3` (racemic) [Example 226, (RS)-4-[(4,5-Dichloro-2-methoxyphenyl)amino]-N-(propan-2-yl)-6,7,8,9-tetrahydro-5H-pyrimido[4,5-b]indole-6-carboxamide] in this work.
